Experimental data published in US9440969B2, “Compounds and methods for kinase modulation, and indications therefor” (PLEXXIKON INC., priority 2009, dated 2016).

Experiments:
[1] = tested on: A375 melanoma (B-Raf V600E mutation); experiment: A375 cell growth inhibition (ATPlite luminescence); assay type: cell-based; conditions: Homo sapiens, A-375, 72 h, A375 cells, incubated 3 days with compound
Protocol: Compounds are assessed in a variety of cell based assays. For example human cell lines with B-Raf V600E mutation (A375 melanoma, SKMEL3 melanoma, and COLO205 colon adenocarcinoma), as well as tumorigenic cell lines with wild-type B-RAF (SW620 colon adenocarcinoma) or with Ras mutations (SKMEL2 melanoma and IPC298 melanoma). Similar assays may be used to assess additional tumorigenic cell lines with Ras mutations, including, but not limited to, M202, M207, M243, M244, M296, S117, HCT116, HCT15, DLD1, MiaPaCa, A549, NCI-H23, NCI-H460, HOP62, MDA-MB231, Hs-578T, HL60, MOLT-4, and CCRF-CEM.
On day 1, cells are counted, then centrifuged in a conical tube for 5 minutes at 1000 rpm. The supernatant is removed and cells are re-suspended as follows: • SW620 (ATCC catalog #CCL-27): resuspend in Leibovitz's L-15 medium, 2 mM L-glutamine, 10% fetal bovine serum to 6×10^4 cells/mL. • A375 (ATCC catalog #CRL-1619): resuspend in Dulbecco's modified Eagle's medium, 4 mM L-glutamine, 4.5 g/L D-glucose, 10% fetal bovine serum to 6×10^4 cells/mL. • COLO205 (ATCC catalog #CCL-222): resuspend in RPMI 1640, 2 mM L-glutamine, 1.5 g/L sodium bicarbonate, 4.5 g/L D-glucose, 10 mM HEPES, 1.0 mM sodium pyruvate, 10% fetal bovine serum to 6×10^4 cells/mL. • SKMEL2 (ATCC catalog #HTB-68): resuspend in Minimum Eagle essential medium, 2 mM L-glutamine, 1.5 g/L sodium bicarbonate, 0.1 mM non-essential amino acids, 1.0 mM sodium pyruvate, 10% fetal bovine serum to 6×10^4 cells/mL. • SKMEL3 (ATCC catalog #HTB-69): resuspend in McCoy's 5A medium, 1.5 mM L-glutamine, 15% fetal bovine serum to 6×10^4 cells/mL. • IPC298 (DSMZ catalog #ACC 251): resuspend in RPMI 1640, 2 mM L-glutamine, 10% fetal bovine serum to 6×10^4 cells/mL.
The cells are plated, 50 μL in each well of a 96-well dish (Corning 3610) and incubated at 37° C. in 5% CO2 overnight, cells plated to a final concentration of cells as follows:
On day 2, compound at a maximum concentration of 5 mM is serially diluted 1:3 (e.g. 10 μL with 30 μL dimethyl sulfoxide) for a total of 8 point titration with DMSO as a control. A 1 μL aliquot of each dilution point and control is added to 249 μL growth media and 50 μL is added to a well containing cells, providing 10 μM compound at the maximum concentration point. The cells are incubated for 3 days at 37° C. in 5% CO2.
On day 5, ATPlite 1 step Luminescence Assay System (Perkin Elmer #6016739) is brought to room temperature along with the cell cultures. ATPlite is added 25 μL to each well, shake for 2 minutes, and the cells are incubated at room temperature for 10 minutes, then luminescence is read on Safire reader. The measured luminescence correlates directly with cell number, such that the reading as a function of compound concentration is used to determine the IC50 value.
It is understood that the results of these assays may vary as assay conditions are varied. Inhibition levels determined under the conditions described herein represent a relative activity for the compounds tested under the specific conditions employed. The cell based assays are likely to show variability due to the complexity of the system and the sensitivity thereof to any changes in the assay conditions. […] Results for compounds that are tested and show substantially no inhibition below the highest tested concentration are represented as “-” in the tables below. In some instances, the compounds were not tested in all of the assays, or assay results were not valid, as indicated by NA in the tables below.

[2] = tested on: COLO205 colon adenocarcinoma (B-Raf V600E mutation); experiment: COLO205 cell growth inhibition (ATPlite luminescence); assay type: cell-based; conditions: Homo sapiens, COLO 205, 72 h, COLO205 cells, incubated 3 days with compound
Outline: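 Cells seeded at 6×10^4 cells/mL in line-specific medium with 10% FBS, held overnight at 37°C, then given an 8-point 1:3 compound titration (top 10 μM final) for 3 days at 37°C, 5% CO2. ATP content read by ATPlite luminescence as a cell-number proxy; IC50 fitted from luminescence versus concentration.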

[3] = Relative solubility by turbidity in aqueous buffers (pH 1.5, 4.5, 6.8, 7.4); assay type: physicochemical; conditions: for turbidity threshold (L, M, H) 1.4: pH 1.5 buffer (SGF); for turbidity threshold (L, M, H) 4.5: pH 4.5 buffer (SIF); for turbidity threshold (L, M, H) 6.8: pH 6.8 buffer (SIF); for turbidity threshold (L, M, H) 7.4: pH 7.4 buffer (HEPES)
Outline: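 2-fold DMSO dilution series from 25 mM stocks were added to SGF (0.5M NaCl, pH 1.5), SIF (0.05M NaH2PO4, pH 4.5/6.8) or HEPES (10 mM, 150 mM NaCl, pH 7.4). Absorbance at 490, 535 and 650 nm; value is the concentration crossing OD 0.01, averaged over wavelengths. Low <31.3 μM, moderate 31.3–250 μM, high >250 μM.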

Row | Compound | IC50 [1] | IC50 [2] | turbidity threshold (L, M, H) 1.4 [3] | turbidity threshold (L, M, H) 4.5 [3] | turbidity threshold (L, M, H) 6.8 [3] | turbidity threshold (L, M, H) 7.4 [3]
1 | CCCS(=O)(=O)Nc1ccc(F)c(C(=O)c2c[nH]c3ncc(-c4ccc5cn(C)nc5c4)cc23)c1F [P-0011, Propane-1-sulfonic acid {2,4-difluoro-3-[5-(2-methyl-2H-indazol-6-yl)-1H-pyrrolo[2,3-b]pyridine-3-carbonyl]-phenyl}-amide] | < 1 µM | < 1 µM | L (low solubility if the threshold concentration is <31.3 μM) | L (low solubility if the threshold concentration is <31.3 μM) | M (moderate solubility if the threshold concentration is 31.3 μM to 250 μM) | L (low solubility if the threshold concentration is <31.3 μM)
2 | CCCS(=O)(=O)Nc1ccc(F)c(C(=O)c2c[nH]c3ncc(-c4ccc5[nH]ccc5c4)cc23)c1F [P-0012, Propane-1-sulfonic acid {2,4-difluoro-3-[5-(1H-indol-5-yl)-1H-pyrrolo[2,3-b]pyridine-3-carbonyl]-phenyl}-amide] | < 1 µM | < 1 µM | L (low solubility if the threshold concentration is <31.3 μM) | L (low solubility if the threshold concentration is <31.3 μM) | L (low solubility if the threshold concentration is <31.3 μM) | L (low solubility if the threshold concentration is <31.3 μM)
3 | CCCS(=O)(=O)Nc1ccc(F)c(C(=O)c2c[nH]c3ncc(-c4ccc5nn(C)cc5c4)cc23)c1F [P-0010, Propane-1-sulfonic acid {2,4-difluoro-3-[5-(2-methyl-2H-indazol-5-yl)-1H-pyrrolo[2,3-b]pyridine-3-carbonyl]-phenyl}-amide] | < 1 µM | < 1 µM | L (low solubility if the threshold concentration is <31.3 μM) | L (low solubility if the threshold concentration is <31.3 μM) | L (low solubility if the threshold concentration is <31.3 μM) | L (low solubility if the threshold concentration is <31.3 μM)

The next lines start with results.

Row | IC50 [1] | IC50 [2] | Compound | turbidity threshold (L, M, H) 1.4 [3] | turbidity threshold (L, M, H) 4.5 [3] | turbidity threshold (L, M, H) 6.8 [3] | turbidity threshold (L, M, H) 7.4 [3]
4 | < 1 µM | < 1 µM | CCCS(=O)(=O)Nc1ccc(F)c(C(=O)c2c[nH]c3ncc(-c4cccc5nn(C)cc45)cc23)c1F [P-0015, Propane-1-sulfonic acid {2,4-difluoro-3-[5-(2-methyl-2H-indazol-4-yl)-1H-pyrrolo[2,3-b]pyridine-3-carbonyl]-phenyl}-amide] | L (low solubility if the threshold concentration is <31.3 μM) | L (low solubility if the threshold concentration is <31.3 μM) | L (low solubility if the threshold concentration is <31.3 μM) | L (low solubility if the threshold concentration is <31.3 μM)
5 | < 1 µM | < 1 µM | CCCS(=O)(=O)Nc1ccc(F)c(C(=O)c2c[nH]c3ncc(-c4csc(-n5ccnc5C)n4)cc23)c1F [P-1101, Propane-1-sulfonic acid (2,4-difluoro-3-{5-[2-(2-methyl-imidazol-1-yl)-thiazol-4-yl]-1H-pyrrolo[2,3-b]pyridine-3-carbonyl}-phenyl)-amide] | – | – | – | –
